Assay [1] relates to Ristocetin-Induced Platelet Aggregation. The assay can be described thus: Platelet aggregation inhibitory activity: ristocetin-induced platelet aggregation in platelet rich plasma. The format is cell-based. The note with it: Cavia porcellus, guinea pig PRP. As for the experimental part:
(§1) A blood of a guinea pig was sampled by using a 1/10 volume of a 3.8% sodium citrate as a platelet aggregation inhibitor, and a platelet rich plasma (PRP) was separated by centrifuging the blood sample at 1100 rpm for 10 min. After fractionating the PRP in the upper layer, the lower layer was centrifuged at 3000 rpm for 10 min to fractionate the platelet poor plasma (PPP). To 100 μL of PRP, a 1 μL solution of each compound was added, and after still standing at 37° C. for 1 min, the mixture was stirred at 37° C. for 1 min by a stirrer. Then, 11 μL of collagen, ristocetin, or ADP was added thereto to induce the platelet aggregation. The platelet aggregation ability was measured by using the mCM hematolaser 313M (L-M-S Inc.). Based on the assumption that a light transmittance of PPP corresponds to a 100% coagulation value, an aggregation rate at each concentration of the compound was determined, then, an IC50 value was calculated therefrom.
[Platelet Aggregation Inhibitory Activities: Ristocetin-Induced Platelet Aggregation]

Assay [2] relates to Collagen-Induced Platelet Aggregation. Briefly: Platelet aggregation inhibitory activity: collagen-induced platelet aggregation in platelet rich plasma. The format is cell-based. Particulars: Cavia porcellus, guinea pig PRP. The procedure:
as §1
[Platelet Aggregation Inhibitory Activities: Collagen-Induced Platelet Aggregation]

A word on the IC50: it is the point on the concentration scale where inhibition reaches its midpoint. A higher IC50 goes with a need for much substance.

For the molecule `Cc1ccc(-n2c(-c3ccc(C#N)cn3)nc3cc(C(F)(F)F)cnc32)cn1` [Example 130, 6-[3-(6-methylpyridin-3-yl)-6-(trifluoromethyl)-3H-imidazo[4,5-b]pyridin-2-yl]nicotinonitrile], the IC50 is 170 nM in assay [1] and 177 nM in assay [2].

`COc1ccc(-n2c(-c3ccccn3)nc3cc(C4CC4)ccc32)cn1` [Example 27, 5-cyclopropyl-1-(6-methoxypyridin-3-yl)-2-pyridin-2-yl-1H-benzimidazole]: the 50% inhibitory concentration (IC50) in assay [1] is 170 nM; in assay [2], 190 nM.

Molecule `COc1cnc(-n2c(-c3cnn(C)c3)nc3cc(C(F)(F)F)cnc32)cn1` [Example 165, 3-(5-methoxypyrazine-2-yl)-2-(1-methyl-1H-pyrazol-4-yl)-6-(trifluoromethyl)-3H-imidazo[4,5-b]pyridine] showed an IC50 in assay [2] of 203 nM.

On to `COc1ccc(-n2c(-c3ccccn3)nc3cc(OCC4CC4)ccc32)cn1` [Example 31, 5-(cyclopropylmethoxy)-1-(6-methoxypyridin-3-yl)-2-pyridin-2-yl-1H-benzimidazole], for which the IC50 in assay [1] was 870 nM; in assay [2] it was 250 nM.

Consider `COc1cnc(-n2c(-c3ccccn3)cc3cc(C(F)(F)F)cnc32)cn1` [Example 187, 1-(5-methoxypyrazine-2-yl)-2-pyridin-2-yl-5-(trifluoromethyl)-1H-pyrrolo[2,3-b]pyridine], for which the IC50 in assay [2] amounted to 40 nM.

As for `COc1ccc(-n2c(-c3cnc(C)cn3)nc3cc(C(F)(F)F)ccc32)nn1` [Example 90, 1-(6-methoxypyridazin-3-yl)-2-(5-methylpyrazine-2-yl)-5-(trifluoromethyl)-1H-benzimidazole], the IC50 in assay [1] came to 20 nM; in assay [2] it was 60 nM.

Take `COc1ccc(-n2c(-c3ccccn3)nc3cc(OCC(F)(F)F)cnc32)cn1` [Example 175, 3-(6-methoxypyridin-3-yl)-2-pyridin-2-yl-6-(2,2,2-trifluoroethoxy)-3H-imidazo[4,5-b]pyridine]: the IC50 in assay [1] and in assay [2] was 75 nM each time.

Turning to `COc1ccc(-n2c(-c3cc(C)on3)nc3cc(C(F)(F)F)cnc32)cn1` [Example 108, 3-(6-methoxypyridin-3-yl)-2-(5-methylisoxazol-3-yl)-6-(trifluoromethyl)-3H-imidazo[4,5-b]pyridine], the half-maximal inhibitory concentration (IC50) is 100 nM in assay [1] and 210 nM in assay [2].

Turning to `COc1cnc(-n2c(-c3cc(C)on3)nc3cc(C(F)(F)F)cnc32)cn1` [Example 154, 3-(5-methoxypyrazine-2-yl)-2-(5-methylisoxazol-3-yl)-6-(trifluoromethyl)-3H-imidazo[4,5-b]pyridine], the IC50 in assay [1] and in assay [2] was 129 nM throughout.

`COc1ccc(-n2c(-c3cc(Br)ccn3)nc3cc(C(F)(F)F)ccc32)nn1` [Example 75, 2-(4-bromopyridin-2-yl)-1-(6-methoxypyridazin-3-yl)-5-(trifluoromethyl)-1H-benzimidazole]: the IC50 was found to be 380 nM in assay [1] and 200 nM in assay [2].

`COc1ccc(-c2c(-c3ccccn3)nc3cc(C(F)(F)F)ccn23)cn1` [Example 190, 3-(6-methoxypyridin-3-yl)-2-pyridin-2-yl-7-(trifluoromethyl)imidazo[1,2-a]pyridine] returned a concentration for half-maximal inhibition (IC50) in assay [2] of 218 nM.

In assay [2], `COc1ccc(-n2c(-c3ccccn3)nc3cc(OCC4CC4)cnc32)cn1` [Example 171, 6-(cyclopropylmethoxy)-3-(6-methoxypyridin-3-yl)-2-pyridin-2-yl-3H-imidazo[4,5-b]pyridine] yielded an IC50 of 91 nM.

Consider `COc1ccc(-n2c(-c3cn(C)nn3)nc3cc(C(F)(F)F)ccc32)nn1` [Example 163, 1-(6-methoxypyridazin-3-yl)-2-(1-methyl-1H-1,2,3-triazol-4-yl)-5-(trifluoromethyl)-1H-benzimidazole], for which the IC50 in assay [2] worked out at 125 nM.

`Cc1ccc(-n2c(-c3ccccn3)nc3cc(C(F)(F)F)cnc32)cn1` [Example 118, 3-(6-methylpyridin-3-yl)-2-pyridin-2-yl-6-(trifluoromethyl)-3H-imidazo[4,5-b]pyridine] gave an IC50 in assay [2] of 240 nM.

For `COc1ccc(-n2c(-c3ccc(Br)cn3)nc3cc(C(F)(F)F)ccc32)cn1` [Example 20, 2-(5-bromopyridin-2-yl)-1-(6-methoxypyridin-3-yl)-5-(trifluoromethyl)-1H-benzimidazole], the IC50 in assay [1] stood at 210 nM; in assay [2], 62 nM.

Turning to `COc1ccc(-n2c(-c3ccn(C)n3)nc3cc(C(F)(F)F)cnc32)cn1` [Example 73, 3-(6-methoxypyridin-3-yl)-2-(1-methyl-1H-pyrazol-3-yl)-6-(trifluoromethyl)-3H-imidazo[4,5-b]pyridine], the IC50 in assay [1] was found to be 83 nM; in assay [2], 80 nM.

For the molecule `COc1ccc(-c2c(-c3ccc(F)cn3)nc3cc(C(F)(F)F)ccn23)cn1` [Example 191, 2-(5-fluoropyridin-2-yl)-3-(6-methoxypyridin-3-yl)-7-(trifluoromethyl)imidazo[1,2-a]pyridine], the midpoint of inhibition in assay [2], the IC50, lay at 790 nM. That is a sub-micromolar value.

Turning to `CNc1ccc(-n2c(-c3ccc(F)cn3)nc3cc(C(F)(F)F)cnc32)cn1` [Example 149, 5-[2-(5-fluoropyridin-2-yl)-6-(trifluoromethyl)-3H-imidazo[4,5-b]pyridin-3-yl]-N-methylpyridin-2-amine], inhibition in assay [2] was half-maximal at 230 nM (IC50). Against the preceding molecule, the IC50 is about 3.4-fold lower.

`COc1ccc(-n2c(-c3ccccn3)nc3ccccc32)cn1` [Example 23] showed an IC50 in assay [2] of 4470 nM.

`CCOc1cnc2c(c1)nc(-c1ccccn1)n2-c1ccc(OC)nc1` [Example 170, 6-ethoxy-3-(6-methoxypyridin-3-yl)-2-pyridin-2-yl-3H-imidazo[4,5-b]pyridine] displayed an IC50 in assay [2] of 279 nM. This IC50 is about 16-fold lower than that of the molecule before.

As for `COc1ccc(-n2c(-c3ccccn3)nc3c(C(F)(F)F)cccc32)cn1` [Example 37], the IC50 in assay [2] amounted to 2380 nM. Compared with the last molecule, the IC50 is about 8.5-fold higher.

With `COc1ccc(-n2c(-c3ccn(C)n3)nc3cc(OC(F)(F)F)ccc32)nn1` [Example 156, 1-(6-methoxypyridazin-3-yl)-2-(1-methyl-1H-pyrazol-3-yl)-5-(trifluoromethoxy)-1H-benzimidazole], in assay [2], 76 nM corresponded to half-maximal inhibition (IC50).

In assay [2], `COc1cnc(-n2c(-c3cnc(C#N)cn3)nc3cc(C(F)(F)F)cnc32)cn1` [Example 157] returned an IC50 of 74 nM.

For the molecule `COc1ccc(-n2c(-c3ccccn3)nc3ccc(C(F)(F)F)cc32)cn1` [Example 19], the midpoint of inhibition in assay [2], the IC50, lay at 10400 nM.

`COc1cnc(-n2c(-c3ccccn3)nc3cc(C(F)(F)F)ccc32)cn1` [Example 161, 1-(5-methoxypyrazine-2-yl)-2-pyridin-2-yl-5-(trifluoromethyl)-1H-benzimidazole] came in with an IC50 in assay [2] of 268 nM.

In the case of `CNc1ccc(-n2c(-c3ccccn3)nc3cc(C(F)(F)F)cnc32)cn1` [Example 5, N-methyl-5-[2-pyridin-2-yl-6-(trifluoromethyl)-3H-imidazo[4,5-b]pyridin-3-yl]pyridin-2-amine], inhibition in assay [2] was half-maximal at 89 nM (IC50). Against the preceding molecule, the IC50 is about 3-fold lower.

`COc1ccc(-n2c(-c3cc(C)on3)nc3cc(OC(F)(F)F)ccc32)nn1` [Example 168, 1-(6-methoxypyridazin-3-yl)-2-(5-methylisoxazol-3-yl)-5-(trifluoromethoxy)-1H-benzimidazole] yielded an IC50 in assay [2] of 259 nM.

In turn, `CN(C)c1ccc(-n2c(-c3ccccn3)nc3cc(C(F)(F)F)cnc32)cn1` [Example 6, N,N-dimethyl-5-[2-pyridin-2-yl-6-(trifluoromethyl)-3H-imidazo[4,5-b]pyridin-3-yl]pyridin-2-amine] came in with an IC50 in assay [2] of 257 nM.

Take `COc1cnc(-n2c(-c3cscn3)nc3cc(C(F)(F)F)cnc32)cn1` [Example 148, 3-(5-methoxypyrazine-2-yl)-2-(1,3-thiazol-4-yl)-6-(trifluoromethyl)-3H-imidazo[4,5-b]pyridine]: in assay [2], inhibition was half-maximal at 81 nM (IC50).

Take `COc1ccc(-n2c(-c3ccc(Br)cn3)nc3cc(C(F)(F)F)ccc32)nn1` [Example 35, 2-(5-bromopyridin-2-yl)-1-(6-methoxypyridazin-3-yl)-5-(trifluoromethyl)-1H-benzimidazole]: in assay [2], the half-inhibitory concentration (IC50) worked out at 44 nM.

Consider `COc1ccc(-c2c3ccc(C(F)(F)F)cc3nn2-c2ccccn2)cn1` [Example 188, 3-(6-methoxypyridin-3-yl)-2-pyridin-2-yl-6-(trifluoromethyl)-2H-indazole], for which, in assay [2], the IC50 was 30 nM.

Take `COc1ccc(-n2c(-c3ccccn3)nc3cccnc32)cn1` [Example 49]: it took 15000 nM to reach half-maximal inhibition in assay [2] (IC50).

With `COc1ccc(-n2c(-c3cnn(C)c3)nc3cc(OC(F)(F)F)ccc32)nn1` [Example 166, 1-(6-methoxypyridazin-3-yl)-2-(1-methyl-1H-pyrazol-4-yl)-5-(trifluoromethoxy)-1H-benzimidazole], in assay [2], 316 nM corresponded to half-maximal inhibition (IC50).

As for `COc1cnc(-n2c(-c3cn(C)nn3)nc3cc(C(F)(F)F)cnc32)cn1` [Example 164, 3-(5-methoxypyrazine-2-yl)-2-(1-methyl-1H-1,2,3-triazol-4-yl)-6-(trifluoromethyl)-3H-imidazo[4,5-b]pyridine], the IC50 in assay [2] worked out at 161 nM. This IC50 is about 2-fold lower than that of the molecule before.

`COc1cnc(-n2c(-c3ccn(C)n3)nc3cc(C(F)(F)F)cnc32)cn1` [Example 153, 3-(5-methoxypyrazine-2-yl)-2-(1-methyl-1H-pyrazol-3-yl)-6-(trifluoromethyl)-3H-imidazo[4,5-b]pyridine] gave an IC50 in assay [2] of 291 nM.

On to `CCc1nc(-c2nc3cc(C(F)(F)F)cnc3n2-c2ccc(OC)nc2)co1` [Example 172, 2-(2-ethyl-1,3-oxazol-4-yl)-3-(6-methoxypyridin-3-yl)-6-(trifluoromethyl)-3H-imidazo[4,5-b]pyridine], for which the IC50 in assay [2] came out at 275 nM. The IC50 values of the last two molecules are within 1.5-fold of each other.
